This is an account of results in patent publication US9856279B2 (AGIOS PHARMACEUTICALS, INC, priority 2011, dated 2018).

A value given as a limit tells only on which side of the number the result lay.

For orientation: IC50 means the concentration that gives 50% inhibition.

Chain of IDH1 R132H (O75874 whole entry R132H): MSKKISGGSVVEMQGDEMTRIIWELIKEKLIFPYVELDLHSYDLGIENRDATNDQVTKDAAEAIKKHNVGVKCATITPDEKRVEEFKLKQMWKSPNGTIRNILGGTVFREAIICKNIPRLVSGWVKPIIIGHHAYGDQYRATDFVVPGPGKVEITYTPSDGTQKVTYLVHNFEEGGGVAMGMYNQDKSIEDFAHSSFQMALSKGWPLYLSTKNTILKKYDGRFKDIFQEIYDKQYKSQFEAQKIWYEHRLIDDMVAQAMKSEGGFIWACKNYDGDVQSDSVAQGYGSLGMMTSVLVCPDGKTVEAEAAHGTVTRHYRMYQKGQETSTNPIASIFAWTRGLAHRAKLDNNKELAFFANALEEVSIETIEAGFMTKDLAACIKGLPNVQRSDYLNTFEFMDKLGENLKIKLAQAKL

One experiment addresses IDH1 R132H (Homo sapiens, UniProt O75874, R132H). In words: Assay for IDH1 R132H inhibitors (NADPH/aKG, resazurin detection). Format: biochemical. Particulars: Table 3; enzyme assay, 50 minutes at room temperature; read-out: IC50 (IDH1 R132H Inhibition). The procedure, abridged: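 Compound added to substrate mix (8 uM NADPH, 2 mM aKG), then enzyme mix (0.2 μg/ml IDH1 R132H); 50 min RT in 20 mM Tris pH 7.5, 150 mM NaCl, 10 mM MgCl2, 0.03% BSA. Resazurin detection mix (30 μM) 5 min RT; resorufin fluorescence Ex544/Em590.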
On the technique in general: Resazurin is reduced to fluorescent resorufin, in cell work by metabolically active cells.
For the compound `COCCC(=O)N1CCN(c2nc(C(C)C)c(OCc3ccccc3)cc2C#N)C[C@H]1C` [Compound 254, (R)-5-(benzyloxy)-6-isopropyl-2-(4-(3-methoxypropanoyl)-3-methylpiperazin-1-yl)nicotinonitrile], the half-maximal inhibitory concentration (IC50) lay within 1000 to 5000 nM.

Turning to `CC(C)c1cc(-c2cccc(F)c2)c(C#N)c(N2CCN(C(=O)c3ccoc3)[C@H](C)C2)n1` [Compound 156], the IC50 lay in the range of 1000 to 5000 nM.

Regarding `CC(C)c1cc(-c2ccccc2)c(C#N)c(N2CCN(C(=O)c3ccco3)CC2c2ccccc2)n1` (centres unmarked) [Compound 167, 2-(4-(furan-2-carbonyl)-2-phenylpiperazin-1-yl)-6-isopropyl-4-phenylnicotinonitrile], the IC50 lay in the range of 1000 to 5000 nM.

For the compound `CC(C)c1cc(-c2cccc(F)c2)c(C#N)c(N2CCN(C(=O)c3c[nH]c4ccccc34)C(C)C2)n1` (centres unmarked) [Compound 129, 2-(4-(1H-indole-3-carbonyl)-3-methylpiperazin-1-yl)-4-(3-fluorophenyl)-6-isopropylnicotinonitrile], the IC50 was 5000 to 15000 nM.

For the compound `CC1CN(c2nc(C3CCCCC3)cc(-c3ccccc3)c2C#N)CCN1C(=O)c1ccoc1` (centres unmarked) [Compound 138, 6-cyclohexyl-2-(4-(furan-3-carbonyl)-3-methylpiperazin-1-yl)-4-phenylnicotinonitrile], the IC50 lay in the range of 1000 to 5000 nM.

Regarding `COc1ccccc1-c1cc(C#N)c(N2CCN(C(=O)Cc3cccs3)[C@H](C)C2)nc1C(C)C` [Compound 177, (R)-6-isopropyl-5-(2-methoxyphenyl)-2-(3-methyl-4-(2-(thiophen-2-yl)acetyl)piperazin-1-yl)nicotinonitril-e], the IC50 was 1000 to 5000 nM.

Regarding `COCCC(=O)N1CCN(c2nc(C(C)C)c(-c3ccncc3)cc2C#N)C[C@H]1C` [Compound 213, (R)-2-isopropyl-6-(4-(3-methoxypropanoyl)-3-methylpiperazin-1-yl)-3,4′-bipyridine-5-carbonitrile], the IC50 lay in the range of 1000 to 5000 nM.

For `Cc1ccc(-c2cc(C#N)c(N3CCN(C(=O)c4ccco4)[C@H](C)C3)nc2C(C)C)cc1` [Compound 180, (R)-2-(4-(furan-2-carbonyl)-3-methylpiperazin-1-yl)-6-isopropyl-5-p-tolylnicotinonitrile], the IC50 lay within 1000 to 5000 nM.

For the compound `COCCC(=O)N1CCN(c2nc(C(C)C)c(-c3cncc4ccccc34)cc2C#N)C[C@H]1C` [Compound 234, (R)-6-isopropyl-5-(isoquinolin-4-yl)-2-(4-(3-methoxypropanoyl)-3-methylpiperazin-1-yl)nicotinonitrile], the IC50 was no more than 1000 nM.

Consider `Cc1ccc(-c2cc(C#N)c(N3CCN(C(=O)Cc4cccs4)[C@H](C)C3)nc2C(C)C)cc1` [Compound 181, (R)-6-isopropyl-2-(3-methyl-4-(2-(thiophen-2-yl)acetyl)piperazin-1-yl)-5-p-tolylnicotinonitrile], for which the IC50 was 1000 to 5000 nM.

With `Cc1occc1C(=O)N1CCN(c2nc(C(C)C)c(-c3ccc(C(C)C)cc3)cc2C#N)C[C@H]1C` [Compound 202, (R)-6-isopropyl-5-(4-isopropylphenyl)-2-(3-methyl-4-(2-methylfuran-3-carbonyl)piperazin-1-yl)nicotinonitrile], the IC50 is 1000 to 5000 nM.

For the compound `COCCC(=O)N1CCN(c2nc(C3CC3)c(-c3cncc4ccccc34)cc2C#N)C[C@H]1C` [Compound 242, (R)-6-cyclopropyl-5-(isoquinolin-4-yl)-2-(4-(3-methoxypropanoyl)-3-methylpiperazin-1-yl)nicotinonitrile], the IC50 is no more than 1000 nM.

Staying with this experiment, now noted: enzyme assay of Example 12; read-out: IDH1R132H IC50.
With `C=Cc1cc(-c2cc(C#N)c(N3CCN(C(=O)CC4CCC(=O)O4)[C@H](C4CC4)C3)nc2C2CC2)ccn1` (stereo partly drawn) [Compound 802, 2-cyclopropyl-6-((3R)-3-cyclopropyl-4-(2-(5-oxotetrahydrofuran-2-yl)acetyl)piperazin-1-yl)-2′-vinyl-[3,4′-bipyridine]-5-carbonitrile], the IC50 was less than 500 nM.

`C=Cc1nc(-c2cc(C#N)c(N3CCN(C(=O)CCOC)[C@H](C)C3)nc2C2CC2)ncc1F` [Compound 601, (R)-6-cyclopropyl-5-(5-fluoro-4-vinylpyrimidin-2-yl)-2-(4-(3-methoxypropanoyl)-3-methylpiperazin-1-yl)nicotinonitrile]: the IC50 is less than 500 nM.

As for `COCCC(=O)N1CCN(c2nc(C3CC3)c(-c3cccc4c(O)ncnc34)cc2C#N)C[C@H]1C` [Compound 430], the IC50 fell in the range of 1000 to 10000 nM.

For the compound `Cc1cc2c(-c3cc(C#N)c(N4CCN(C(=O)CC(F)(F)F)[C@H](C5CC5)C4)nc3C3CC3)cccc2cn1` [Compound 471, (R)-6-cyclopropyl-2-(3-cyclopropyl-4-(3,3,3-trifluoropropanoyl)piperazin-1-yl)-5-(3-methylisoquinolin-5-yl)nicotinonitrile], the IC50 was less than 500 nM.

`COCCC(=O)N1CCN(c2nc(C3CC3)c(-c3ccnn3C)c(C)c2C#N)C[C@H]1C` [Compound 349, (R)-6-cyclopropyl-2-[4-(3-methoxy-propionyl)-3-methyl-piperazin-1-yl]-4-methyl-5-(2-methyl-2H-pyrazol-3-yl)-nicotinonitrile]: the IC50 lay in the range of 500 to 1000 nM.

Regarding `Cc1c(C#N)c(N2CCN(C(=O)CC(F)(F)F)[C@H](C3CC3)C2)nc(C2CC2)c1-c1ccc(F)cc1` [Compound 300, (R)-6-cyclopropyl-2-(3-cyclopropyl-4-(3,3,3-trifluoropropanoyl)piperazin-1-yl)-5-(4-fluorophenyl)-4-methylnicotinonitrile], the IC50 fell in the range of 500 to 1000 nM.

Take `N#Cc1cc(-c2cnc3cnccn23)c(C2CC2)nc1N1CCN(C(=O)C2CC2)[C@H](C2CC2)C1` [Compound 503, (R)-2-(4-(cyclopropanecarbonyl)-3-cyclopropylpiperazin-1-yl)-6-cyclopropyl-5-(imidazo[1,2-a]pyrazin-3-yl)nicotinonitrile]: the half-inhibitory concentration (IC50) was less than 500 nM.

As to `COCCC(=O)N1CCN(c2nc(C3CC3)c(-c3ccc(-c4ccccc4)c(F)c3)c(C)c2C#N)C[C@H]1C` [Compound 282, (R)-6-cyclopropyl-5-(2-fluorobiphenyl-4-yl)-2-(4-(3-methoxypropanoyl)-3-methylpiperazin-1-yl)-4-methylnicotinonitrile], the IC50 lay in the range of 500 to 1000 nM.

With `CS(=O)(=O)n1cc(-c2cc(C#N)c(N3CCN(C(=O)C4CC4)[C@H](C4CC4)C3)nc2C2CC2)cn1` [Compound 502, (R)-2-(4-(cyclopropanecarbonyl)-3-cyclopropylpiperazin-1-yl)-6-cyclopropyl-5-(1-(methylsulfonyl)-1H-pyrazol-4-yl)nicotinonitrile], the IC50 lay within 500 to 1000 nM.

Regarding `CC1CN(c2nc(C3CC3)c(-c3cccc4cnccc34)cc2C#N)CC(F)CN1C(=O)C1CC1` (centres unmarked) [Compound 484, 2-(4-(cyclopropanecarbonyl)-6-fluoro-3-methyl-1,4-diazepan-1-yl)-6-cyclopropyl-5-(isoquinolin-5-yl)nicotinonitrile], the IC50 lay in the range of 500 to 1000 nM.

Take `COCCC(=O)N1CCN(c2nc(C3CC3)c(Nc3cnc4ccccc4c3)cc2C#N)C[C@H]1C` [Compound 339, (R)-6-cyclopropyl-2-(4-(3-methoxypropanoyl)-3-methylpiperazin-1-yl)-5-(quinolin-3-ylamino)nicotinonitrile]: the IC50 is 500 to 1000 nM.

`C#Cc1cc(-c2cc(C#N)c(N3CCN(C(=O)C4CC4)[C@H](C)C3)nc2C2CC2)ccn1` [Compound 593, (R)-6-(4-(cyclopropanecarbonyl)-3-methylpiperazin-1-yl)-2-cyclopropyl-2′-ethynyl-3,4′-bipyridine-5-carbonitrile]: the IC50 lay within 500 to 1000 nM.

Consider `CCc1ccccc1-c1cc(C#N)c(N2CCN(C(=O)CCOC)[C@H](C)C2)nc1C1CC1` [Compound 334, (R)-6-cyclopropyl-5-(2-ethyl-phenyl)-2-[4-(3-methoxy-propionyl)-3-methyl-piperazin-1-yl]-nicotinonitrile], for which the IC50 was 500 to 1000 nM.

`N#Cc1cc(-c2ccc3ncsc3c2)c(C2CC2)nc1N1CCN(C(=O)C2CC2)[C@H](C2CC2)C1` [Compound 487, (R)-5-(benzo[d]thiazol-6-yl)-2-(4-(cyclopropanecarbonyl)-3-cyclopropylpiperazin-1-yl)-6-cyclopropylnicotinonitrile]: the IC50 is less than 500 nM.

For the compound `N#Cc1cc(-c2ccnc(NCCO)n2)c(C2CC2)nc1N1CCN(C(=O)C2CC2)[C@H](C2CC2)C1` [Compound 512, (R)-2-(4-(cyclopropanecarbonyl)-3-cyclopropylpiperazin-1-yl)-6-cyclopropyl-5-(2-(2-hydroxyethylamino)pyrimidin-4-yl)nicotinonitrile], the IC50 was less than 500 nM.

With `N#Cc1cc(-c2cnn(C3CCC(O)C3)c2)c(C2CC2)nc1N1CCN(C(=O)C2CC2)[C@H](C2CC2)C1` (stereo partly drawn) [Compound 493, 2-((R)-4-(cyclopropanecarbonyl)-3-cyclopropylpiperazin-1-yl)-6-cyclopropyl-5-(1-(3-hydroxycyclopentyl)-1H-pyrazol-4-yl)nicotinonitrile], the IC50 lay in the range of 500 to 1000 nM.

Take `COCCC(=O)N1CCN(c2nc(C3CC3)c(-c3cccc(N(C)C(=O)C(F)F)c3)cc2C#N)C[C@H]1C` [Compound 455]: the IC50 was 500 to 1000 nM.

Turning to `N#Cc1cc(-c2cc(Cl)nc3ccccc23)c(C2CC2)nc1N1CCN(C(=O)C2CC2)[C@H](C2CC2)C1` [Compound 543, (R)-5-(2-chloroquinolin-4-yl)-2-(4-(cyclopropanecarbonyl)-3-cyclopropylpiperazin-1-yl)-6-cyclopropylnicotinonitrile], the IC50 was 500 to 1000 nM.

On to `COCCC(=O)N1CCN(c2nc(C3CC3)c(-c3cccc(N(C)C)c3)c(C)c2C#N)C[C@H]1C` [Compound 362, (R)-6-cyclopropyl-5-(3-dimethylamino-phenyl)-2-[4-(3-methoxy-propionyl)-3-methyl-piperazin-1-yl]-4-methyl-nicotinonitrile], for which the IC50 is less than 500 nM.

Regarding `COCCC(=O)N1CCN(c2nc(C3CC3)c(-c3ccc(S(C)(=O)=O)cc3)c(C)c2C#N)C[C@H]1C` [Compound 319, (R)-6-cyclopropyl-5-(4-methanesulfonyl-phenyl)-2-[4-(3-methoxy-propionyl)-3-methyl-piperazin-1-yl]-4-methyl-nicotinonitrile], the IC50 was less than 500 nM.
